Measured values reported in publication PMC4207771, “Identification and Characterization of Novel Renal Sensory Receptors” (PLoS ONE, 2014).

How the values were obtained:
Olfr31 = molecular target: T1, Olfr31 (Mus musculus, UniProt Q3KPA7); test: dual-luciferase (cAMP/CREB reporter) ligand screen, Olfr31 in HEK293T cells; type: cell-based; settings: chemicals tested individually, screened at 500uM (* also at 100uM)
T1 construct: expressed in transfected cells; host or cells: HEK293T, co-transfected with RTP1S
T1 sequence (Q3KPA7 1-317): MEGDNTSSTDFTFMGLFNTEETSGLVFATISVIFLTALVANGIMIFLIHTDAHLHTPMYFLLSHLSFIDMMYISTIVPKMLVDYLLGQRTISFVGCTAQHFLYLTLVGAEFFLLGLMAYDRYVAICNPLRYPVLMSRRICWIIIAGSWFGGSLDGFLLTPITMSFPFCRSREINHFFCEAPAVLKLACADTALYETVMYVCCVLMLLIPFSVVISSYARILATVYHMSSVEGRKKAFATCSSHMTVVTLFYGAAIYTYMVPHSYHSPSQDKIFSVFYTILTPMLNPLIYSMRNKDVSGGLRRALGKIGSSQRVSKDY

Olfr691 = molecular target: T2, Olfr691 (Mus musculus, UniProt Q8VGW5); test: dual-luciferase (cAMP/CREB reporter) ligand screen, Olfr691 in HEK293T cells; type: cell-based; settings: for Olfr691 response in dual-luciferase assay: chemicals tested individually, screened at 500uM (* also at 100uM)
T2 construct: Lucy (N); expressed in transfected cells; host or cells: HEK293T, co-transfected with RTP1S
T2 sequence (Q8VGW5 1-322): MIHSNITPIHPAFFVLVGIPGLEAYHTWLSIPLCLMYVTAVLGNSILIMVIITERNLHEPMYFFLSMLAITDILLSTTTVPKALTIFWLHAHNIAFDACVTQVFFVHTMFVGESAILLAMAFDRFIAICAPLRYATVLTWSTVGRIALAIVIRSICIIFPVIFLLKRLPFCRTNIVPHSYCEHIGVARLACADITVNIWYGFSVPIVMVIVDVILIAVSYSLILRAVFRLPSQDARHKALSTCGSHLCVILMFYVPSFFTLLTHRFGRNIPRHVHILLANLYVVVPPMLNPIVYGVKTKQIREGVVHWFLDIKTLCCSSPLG

Olfr545 = test: dual-luciferase (cAMP/CREB reporter) ligand screen, Olfr545 in HEK293T cells; type: cell-based, mouse; set-up: key to Olfr545 response in dual-luciferase assay: ‘+’ or ‘–‘ in each column indicates if the olfactory receptor responded or had no effect to that specific chemical; -: ‘+’ or ‘–‘ in each column indicates if the olfactory receptor responded or had no effect to that specific chemical; settings: chemicals tested individually, screened at 500uM (* also at 100uM)
Olfr99 = test: dual-luciferase (cAMP/CREB reporter) ligand screen, Olfr99 in HEK293T cells; type: cell-based, mouse; set-up: key: ‘+’ or ‘–‘ in each column indicates if the olfactory receptor responded or had no effect to that specific chemical; -: ‘+’ or ‘–‘ in each column indicates if the olfactory receptor responded or had no effect to that specific chemical; settings: chemicals tested individually, screened at 500uM (* also at 100uM)
Olfr693 = test: dual-luciferase (cAMP/CREB reporter) ligand screen, Olfr693 in HEK293T cells; type: cell-based, mouse; set-up: key: ‘+’ or ‘–‘ in each column indicates if the olfactory receptor responded or had no effect to that specific chemical; -: ‘+’ or ‘–‘ in each column indicates if the olfactory receptor responded or had no effect to that specific chemical; settings: chemicals tested individually, screened at 500uM (* also at 100uM)

Olfr31 response in dual-luciferase assay (Olfr31) | Olfr691 response in dual-luciferase assay (Olfr691) | Structure (SMILES) | Olfr545 response in dual-luciferase assay (Olfr545) | Olfr99 response in dual-luciferase assay (Olfr99) | Olfr693 response in dual-luciferase assay (Olfr693) | Olfr691 response (in words) (Olfr691)
- | - | C=CC(C)(O)CCC=C(C)CCC=C(C)C (mixture of isomers) [nerolidol] | - | - | - | 
- | - | SCCCCS [1,4-butanedithiol] | - | - | - | 
- | - | O=C1CCC(=O)CC1 [1,4-cyclohexanedione] | - | - | - | 
- | - | SCCCCCCS [1,6-hexanedithiol] | - | - | - | 
- | - | CCCCCCCO [1-Heptanol] | - | - | - | 
- | - | C=CC(=O)CCCCC [1-Octen-3-one] | - | - | - | 
- | - | CCCCCCCCO [1-octanol] | - | - | - | 
- | - | CC(O)C(C)O (stereo not drawn) [2,3-butanediol] | - | - | - | 
 | - | C[C@]12CC[C@@H]3c4ccc(O)cc4CC[C@H]3[C@@H]1CC[C@@H]2O [estradiol, reference compound] | - | - | - | 

Second part, the molecule before the results:

Structure (SMILES) | Olfr31 response in dual-luciferase assay (Olfr31) | Olfr691 response in dual-luciferase assay (Olfr691) | Olfr545 response in dual-luciferase assay (Olfr545) | Olfr99 response in dual-luciferase assay (Olfr99) | Olfr693 response in dual-luciferase assay (Olfr693) | Olfr691 response (in words) (Olfr691)
C=C(C)C1CC=C(C)CC1 (single isomer, unassigned; (+)) [(+)-Limonene] | - | - | - | - | - | 
Fc1ccc(F)c(F)c1 [1,2,4 trifluorobenzene] | - | - | - | - | - | 
SCCS [1,2-ethanedithiol] | - | - | - | - | - | 
COc1cccc(OC)c1 [1,3-Dimethoxybenzene] | - | - | - | - | - | 
CCC(C)S (stereo not drawn) [1-methyl-1-propanethiol] | - | - | - | - | - | 
CCCC(=O)C(C)=O [2,3-hexadione] | - | - | - | - | - | 
O=CO [formate] |  |  |  |  |  | not including
CC(C)CC(=O)O [isovaleric acid] |  |  | - | - | - | 
